Patent publication US20120101093A1, “SUBSTITUTED IMIDAZO[1,2-A]PYRIDINE DERIVATIVES, PHARMACEUTICAL COMPOSITIONS, AND METHODS OF USE AS BETA-SECRETASE INHIBITORS” (HIGH POINT PHARMACEUTICALS, LLC, priority 2009, published 2012)

Columns and labels:
BACE-1 enzyme = molecular target: T1, BACE-1 enzyme (Homo sapiens, UniProt P56817); assay: BACE Fluorescence Resonance Energy Transfer (FRET) Assay; type: biochemical; conditions: pH 4-4.5, 30 min pre-incubation, about 1.5 hours reaction
T1 construct: purchased R & D Systems 931AS
T1 sequence (P56817 46-457 limits assumed): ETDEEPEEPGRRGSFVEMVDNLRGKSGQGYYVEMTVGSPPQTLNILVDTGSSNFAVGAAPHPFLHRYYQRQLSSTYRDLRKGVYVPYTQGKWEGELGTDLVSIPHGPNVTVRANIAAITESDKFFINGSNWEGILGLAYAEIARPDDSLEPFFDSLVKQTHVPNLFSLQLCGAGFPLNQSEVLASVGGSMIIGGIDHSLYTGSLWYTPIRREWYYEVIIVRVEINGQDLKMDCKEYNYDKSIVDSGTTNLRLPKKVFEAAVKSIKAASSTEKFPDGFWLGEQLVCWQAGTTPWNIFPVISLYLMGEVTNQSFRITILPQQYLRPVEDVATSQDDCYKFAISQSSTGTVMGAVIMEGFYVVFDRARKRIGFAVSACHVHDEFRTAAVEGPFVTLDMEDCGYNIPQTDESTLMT
In short: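 Fluorescence (ex 540, em 585 nm) after ~1.5 h room-temperature cleavage of a quenched rhodamine peptide tracks BACE-1 activity. Enzyme and compound first sit 30 min in pH 4-4.5 acetate buffer with CHAPS, Triton X-100, EDTA, 7.5% DMSO. Values given as IC50 or % inhibition.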

[1] = system: Aβ1-40 secreted from HEK293 cells stably expressing wildtype human APP695 protein (HEK-APPwt cells); assay: Aβ Cell Based Assay (Aβ1-40 secretion, ELISA); conditions: Homo sapiens, HEK293, 6 h, 6 hours incubation, reduction of Aβ1-40 secretion
In short: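 Cells in DMEM with 2% FBS exposed to ten compound concentrations for 6 h at 37 °C. Secreted Aβ1-40 in supernatant quantified by sandwich ELISA (82E1 capture, TMB, OD450). EC50 from percent inhibition, DAPT defining 100% inhibition, non-linear fit.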

Structure (SMILES) | IC50 (BACE-1 enzyme) | EC50 [1]
CN(Cc1ccccc1)Cc1ccc2nc(C(=O)Nc3nc4cc(-c5cccc(C(F)(F)F)c5)ccc4[nH]3)cn2c1 [Example 185, 6-[(Benzyl-methyl-amino)-methyl]-imidazo[1,2-a]pyridine-2-carboxylic acid [5-(3-trifluoromethyl-phenyl)-1H-benzoimidazol-2-yl]-amide] | 0.62 µM | 1.93 µM
CCN(C)Cc1ccc2nc(C(=O)Nc3nc4cc(-c5cccc(C(F)(F)F)c5)ccc4[nH]3)cn2c1 [Example 188, 6-[(Ethyl-methyl-amino)-methyl]-imidazo[1,2-a]pyridine-2-carboxylic acid [5-(3-trifluoromethyl-phenyl)-1H-benzoimidazol-2-yl]-amide] | 0.69 µM | 3.6 µM
O=C(Nc1nc2cc(-c3cccc(C(F)(F)F)c3)ccc2[nH]1)c1cn2cccc(CO)c2n1 [Example 192, 8-Hydroxymethyl-imidazo[1,2-a]pyridine-2-carboxylic acid [5-(3-trifluoromethyl-phenyl)-1H-benzoimidazol-2-yl]-amide] | 0.4 µM | 2.56 µM
CN1CCN(Cc2cccn3cc(C(=O)Nc4nc5cc(-c6cccc(C(F)(F)F)c6)ccc5[nH]4)nc23)CC1 [Example 194, 8-(4-Methyl-piperazin-1-ylmethyl)-imidazo[1,2-a]pyridine-2-carboxylic acid [5-(3-trifluoromethyl-phenyl)-1H-benzoimidazol-2-yl]-amide] | 0.87 µM | 6.27 µM
CNCc1cccn2cc(C(=O)Nc3nc4cc(-c5cccc(C(F)(F)F)c5)ccc4[nH]3)nc12 [Example 196, 8-Methylaminomethyl-imidazo[1,2-a]pyridine-2-carboxylic acid [5-(3-trifluoromethyl-phenyl)-1H-benzoimidazol-2-yl]-amide] | 0.45 µM | 5.96 µM
CN(C)Cc1cccn2cc(C(=O)Nc3nc4cc(-c5cccc(C(F)(F)F)c5)ccc4[nH]3)nc12 [Example 197, 8-Dimethylaminomethyl-imidazo[1,2-a]pyridine-2-carboxylic acid [5-(3-trifluoromethyl-phenyl)-1H-benzoimidazol-2-yl]-amide] | 0.7 µM | 0.76 µM
CC(C)CN(C)Cc1cccn2cc(C(=O)Nc3nc4cc(-c5cccc(C(F)(F)F)c5)ccc4[nH]3)nc12 [Example 199, 8-[(Isobutyl-methyl-amino)-methyl]-imidazo[1,2-a]pyridine-2-carboxylic acid [5-(3-trifluoromethyl-phenyl)-1H-benzoimidazol-2-yl]-amide] | 0.94 µM | 5.34 µM
O=C(Nc1nc2cc(-c3cccc(C(F)(F)F)c3)ccc2[nH]1)c1cn2ccc(CN3CCOCC3)cc2n1 [Example 201, 7-Morpholin-4-ylmethyl-imidazo[1,2-a]pyridine-2-carboxylic acid [5-(3-trifluoromethyl-phenyl)-1H-benzoimidazol-2-yl]-amide] | 0.97 µM | 0.87 µM
CN(C)Cc1ccn2cc(C(=O)Nc3nc4cc(-c5cccc(C(F)(F)F)c5)ccc4[nH]3)nc2c1 [Example 202, 7-Dimethylaminomethyl-imidazo[1,2-a]pyridine-2-carboxylic acid [5-(3-trifluoromethyl-phenyl)-1H-benzoimidazol-2-yl]-amide] | 0.9 µM | 4.54 µM
O=C(Nc1nc2cc(-c3cccc(C(F)(F)F)c3)ccc2[nH]1)c1cn2ccc(CNCc3ccncc3)cc2n1 [Example 204, 7-{[(Pyridin-4-ylmethyl)-amino]-methyl}-imidazo[1,2-a]pyridine-2-carboxylic acid [5-(3-trifluoromethyl-phenyl)-1H-benzoimidazol-2-yl]-amide] | 0.47 µM | 2.37 µM
CCN(C)Cc1ccn2cc(C(=O)Nc3nc4cc(-c5cccc(C(F)(F)F)c5)ccc4[nH]3)nc2c1 [Example 205, 7-[(Ethyl-methyl-amino)-methyl]-imidazo[1,2-a]pyridine-2-carboxylic acid [5-(3-trifluoromethyl-phenyl)-1H-benzoimidazol-2-yl]-amide] | 0.59 µM | 3.2 µM
O=C(Nc1nc2cc(-c3cccc(C(F)(F)F)c3)ccc2[nH]1)c1cn2ccc(CNCC(O)c3ccccc3)cc2n1 (stereo not shown) [Example 206, 7-[(2-Hydroxy-2-phenyl-ethylamino)-methyl]-imidazo[1,2-a]pyridine-2-carboxylic acid [5-(3-trifluoromethyl-phenyl)-1H-benzoimidazol-2-yl]-amide] | 0.44 µM | 7.43 µM
O=C(Nc1nc2cc(-c3cccc(C(F)(F)F)c3)ccc2[nH]1)c1cn2ccc(CNC(CO)Cc3ccccc3)cc2n1 (stereo not shown) [Example 207, 7-[(1-Benzyl-2-hydroxy-ethylamino)-methyl]-imidazo[1,2-a]pyridine-2-carboxylic acid [5-(3-trifluoromethyl-phenyl)-1H-benzoimidazol-2-yl]-amide] | 0.69 µM | 7.65 µM
COCCCNCc1ccn2cc(C(=O)Nc3nc4cc(-c5cccc(C(F)(F)F)c5)ccc4[nH]3)nc2c1 [Example 209, 7-[(3-Methoxy-propylamino)-methyl]-imidazo[1,2-a]pyridine-2-carboxylic acid [5-(3-trifluoromethyl-phenyl)-1H-benzoimidazol-2-yl]-amide] | 0.22 µM | 4.91 µM
O=C(Nc1nc2cc(-c3cccc(C(F)(F)F)c3)ccc2[nH]1)c1cn2c(C3=CCNCC3)cccc2n1 [Example 214, 5-(1,2,3,6-tetrahydropyridin-4-yl)-N-{5-[3-(trifluoromethyl)phenyl]-1H-benzimidazol-2-yl}imidazo[1,2-a]pyridine-2-carboxamide] | 0.46 µM | 5.12 µM
CN1CC=C(c2cccc3nc(C(=O)Nc4nc5cc(-c6cccc(C(F)(F)F)c6)ccc5[nH]4)cn23)CC1 [Example 215, 5-(1-methyl-1,2,3,6-tetrahydropyridin-4-yl)-N-{5-[3-(trifluoromethyl)phenyl]-1H-benzimidazol-2-yl}imidazo[1,2-a]pyridine-2-carboxamide] | 0.41 µM | 5.35 µM
CN1CCC(c2cccc3nc(C(=O)Nc4nc5cc(-c6cccc(C(F)(F)F)c6)ccc5[nH]4)cn23)CC1 [Example 219, 5-(1-methylpiperidin-4-yl)-N-{5-[3-(trifluoromethyl)phenyl]-1H-benzimidazol-2-yl}imidazo[1,2-a]pyridine-2-carboxamide] | 0.9 µM | 7.48 µM
CNC(=O)c1cccc2nc(C(=O)Nc3nc4cc(-c5cc(F)cc(Cl)c5)ccc4[nH]3)cn12 [Example 226, Imidazo[1,2-a]pyridine-2,5-dicarboxylic acid 2-{[5-(3-chloro-5-fluoro-phenyl)-1H-benzoimidazol-2-yl]-amide} 5-methylamide] | 0.29 µM | 2.14 µM
CN(C)C(=O)c1cccc2nc(C(=O)Nc3nc4cc(-c5cc(F)cc(Cl)c5)ccc4[nH]3)cn12 [Example 227, Imidazo[1,2-a]pyridine-2,5-dicarboxylic acid 2-{[5-(3-chloro-5-fluoro-phenyl)-1H-benzoimidazol-2-yl]-amide} 5-dimethylamide] | 0.31 µM | 1.65 µM
COCCNC(=O)c1cccc2nc(C(=O)Nc3nc4cc(-c5cc(F)cc(Cl)c5)ccc4[nH]3)cn12 [Example 228] | 0.28 µM | 1.34 µM
